The results in this text go back to patent publication US10959432B2, “Microbiocidal oxadiazole derivatives” (Syngenta Participations AG, priority 2016, dated 2021).

As usually defined, the inhibition is the drop in the measured response relative to a control, in per cent.

Read-outs that look alike come from different tables or passages of the source.

The test system of one test is Phakopsora pachyrhizi. Briefly: Fungicidal activity against Phakopsora pachyrhizi / soybean / leaf disc preventative (Asian soybean rust). Type of test: in vivo. Conditions: foliar, read-out: disease control compared to untreated control leaf disks. On the procedure: (§1) Leaf disks or leaf segments of various plant species are cut from plants grown in a greenhouse. The cut leaf disks or segments are placed in multiwell plates (24-well format) onto water agar. The leaf disks are sprayed with a test solution before (preventative) or after (curative) inoculation. Compounds to be tested are prepared as DMSO solutions (max. 10 mg/ml) which are diluted to the appropriate concentration with 0.025% Tween20 just before spraying. The inoculated leaf disks or segments are incubated under defined conditions (temperature, relative humidity, light, etc.) according to the respective test system. A single evaluation of disease level is carried out 3 to 14 days after inoculation, depending on the pathosystem. Percent disease control relative to the untreated check leaf disks or segments is then calculated. General Examples of Liquid Culture Tests in Well Plates:
Example 3: Fungicidal Activity Against Phakopsora pachyrhizi/Soybean/Leaf Disc Preventative (Asian Soybean Rust)
Soybean leaf disks are placed on water agar in multiwell plates (24-well format) and sprayed with the formulated test compound diluted in water. One day after application leaf discs are inoculated by spraying a spore suspension on the lower leaf surface. After an incubation period in a climate cabinet of 24-36 hours in darkness at 20° C. and 75% rh leaf disc are kept at 20° C. with 12 h light/day and 75% rh. The activity of a compound is assessed as percent disease control compared to untreated when an appropriate level of disease damage appears in untreated check leaf disks (12 to 14 days after application).
(§2) The following compounds at 200 ppm in the applied formulation give at least 80% disease control in this test when compared to untreated control leaf disks under the same conditions, which show extensive disease development.

Test [1] deals with Puccinia recondita f. sp. tritici. Briefly: Fungicidal activity against Puccinia recondita f. sp. tritici / wheat / leaf disc preventative (brown rust). Conditions: foliar, 200 ppm in the applied formulation, wheat leaf segments cv. Kanzler, preventative (inoculated 1 day after application), assessed 7 to 9 days after application, read-out: disease control compared to untreated control leaf disks. It counts as in vivo. Here is the method: as §1
Example 1: Fungicidal Activity Against Puccinia recondita f. sp. tritici/Wheat/Leaf Disc Preventative (Brown Rust)
Wheat leaf segments cv. Kanzler were placed on agar in multiwell plates (24-well format) and sprayed with the formulated test compound diluted in water. The leaf disks were inoculated with a spore suspension of the fungus 1 day after application. The inoculated leaf segments were incubated at 19C and 75% relative humidity (rh) under a light regime of 12 hours light/12 hours darkness in a climate cabinet and the activity of a compound was assessed as percent disease control compared to untreated when an appropriate level of disease damage appears in untreated check leaf segments (7 to 9 days after application).
as §2

Test [2] deals with Glomerella laqenarium (Colletotrichum lagenarium). Briefly: Fungicidal activity against Glomerella lagenarium (Colletotrichum lagenarium) liquid culture / cucumber / preventative (anthracnose). It counts as cell-based. Conditions: Colletotrichum orbiculare, read-out: disease control compared to untreated control (inhibition of growth measured photometrically). On the procedure:
Mycelia fragments or conidia suspensions of a fungus prepared either freshly from liquid cultures of the fungus or from cryogenic storage, are directly mixed into nutrient broth. DMSO solutions of the test compound (max. 10 mg/ml) are diluted with 0.025% Tween20 by a factor of 50 and 10 μl of this solution is pipetted into a microtiter plate (96-well format). The nutrient broth containing the fungal spores/mycelia fragments is then added to give an end concentration of the tested compound. The test plates are incubated in the dark at 24° C. and 96% relative humidity. The inhibition of fungal growth is determined photometrically after 2 to 7 days, depending on the pathosystem, and percent antifungal activity relative to the untreated check is calculated.
Example 4: Fungicidal Activity Against Glomerella laqenarium (Colletotrichum lagenarium) Liquid Culture/Cucumber/Preventative (Anthracnose)
Conidia of the fungus from cryogenic storage are directly mixed into nutrient broth (PDB—potato dextrose broth). After placing a (DMSO) solution of test compound into a microtiter plate (96-well format), the nutrient broth containing the fungal spores is added. The test plates are incubated at 24° C. and the inhibition of growth is measured photometrically 3 to 4 days after application.
The following compounds at 20 ppm in the applied formulation give at least 80% disease control in this test when compared to untreated control under the same conditions, which show extensive disease development.

For test [3], the system named is Puccinia recondita f. sp. tritici. The test can be described thus: Fungicidal activity against Puccinia recondita f. sp. tritici / wheat / leaf disc curative (brown rust). It counts as in vivo. To be noted: foliar, 200 ppm in the applied formulation, wheat leaf segments cv. Kanzler, curative (applied 1 day after inoculation), assessed 6 to 8 days after application, read-out: disease control compared to untreated control leaf disks. On the procedure:
as §1
Example 2: Fungicidal Activity Against Puccinia recondita f. sp. Tritici/Wheat/Leaf Disc Curative (Brown Rust)
Wheat leaf segments cv. Kanzler are placed on agar in multiwell plates (24-well format). The leaf segments are then inoculated with a spore suspension of the fungus. Plates were stored in darkness at 19° C. and 75% relative humidity. The formulated test compound diluted in water was applied 1 day after inoculation. The leaf segments were incubated at 19° C. and 75% relative humidity under a light regime of 12 hours light/12 hours darkness in a climate cabinet and the activity of a compound was assessed as percent disease control compared to untreated when an appropriate level of disease damage appears in untreated check leaf segments (6 to 8 days after application).
as §2

The mark [4] stands for this setting: 200 ppm in the applied formulation, soybean leaf disks, preventative (inoculated one day after application), assessed 12 to 14 days after application.
[5] abbreviates: 20 ppm in the applied formulation, liquid culture in PDB, 24° C., 3 to 4 days after application.

Take `CN(C(=O)c1ccc(-c2noc(C(F)(F)F)n2)cc1)C1CCN(C(=O)OC(C)(C)C)C1` (centres unmarked) [Compound 1a.1, tert-butyl 3-[methyl-[4-[5-(trifluoromethyl)-1,2,4-oxadiazol-3-yl]benzoyl]amino]pyrrolidine-1-carboxylate]: the pest or weed control at 200 ppm (in the test on Phakopsora pachyrhizi (setting [4]); in test [1]) was at least 80% in each case. Moreover, the inhibition at 20 ppm in test [2] (setting [5]) was at least 80%.
For `CCCN(CC1CC1)C(=O)c1ccc(-c2noc(C(F)(F)F)n2)cc1` [Compound 2a.1, N-(cyclopropylmethyl)-N-propyl-4-[5-(trifluoromethyl)-1,2,4-oxadiazol-3-yl]benzamide], in the test with Phakopsora pachyrhizi (setting [4]), the pest or weed control at 200 ppm is at least 80%. Moreover, the inhibition at 20 ppm in test [2] (setting [5]) was at least 80%.
Turning to `CN(CCCO)C(=O)c1ccc(-c2noc(C(F)(F)F)n2)cc1` [Compound 3a.6, N-(3-hydroxypropyl)-N-methyl-4-[5-(trifluoromethyl)-1,2,4-oxadiazol-3-yl]benzamide], the pest or weed control at 200 ppm (with Phakopsora pachyrhizi (setting [4]); in test [3]) was at least 80% throughout.
On to `CN(CC(C)(C)CO)C(=O)c1ccc(-c2noc(C(F)(F)F)n2)cc1` [Compound 3a.8, N-(3-hydroxy-2,2-dimethyl-propyl)-N-methyl-4-[5-(trifluoromethyl)-1,2,4-oxadiazol-3-yl]benzamide], for which the pest or weed control at 200 ppm in the test on Phakopsora pachyrhizi (setting [4]) is at least 80%. Also, the inhibition at 20 ppm in test [2] (setting [5]) was at least 80%.
For `CC(CCO)NC(=O)c1ccc(-c2noc(C(F)(F)F)n2)cc1` (centres unmarked) [Compound 3a.15, N-(3-hydroxy-1-methyl-propyl)-4-[5-(trifluoromethyl)-1,2,4-oxadiazol-3-yl]benzamide], the pest or weed control at 200 ppm (in the test on Phakopsora pachyrhizi (setting [4]); in test [3]) was at least 80% each time.
Regarding `CN(CCCCO)C(=O)c1ccc(-c2noc(C(F)(F)F)n2)cc1` [Compound 3a.19, N-(4-hydroxybutyl)-N-methyl-4-[5-(trifluoromethyl)-1,2,4-oxadiazol-3-yl]benzamide], the pest or weed control at 200 ppm in the test on Phakopsora pachyrhizi (setting [4]) is at least 80%.
For the compound `O=C(NCCCCCO)c1ccc(-c2noc(C(F)(F)F)n2)cc1` [Compound 3a.21, N-(5-hydroxypentyl)-4-[5-(trifluoromethyl)-1,2,4-oxadiazol-3-yl]benzamide], the pest or weed control at 200 ppm (in the test on Phakopsora pachyrhizi (setting [4]); in test [3]) was at least 80% each time.
Take `CC(C)CN(CC(C)C)C(=O)c1ccc(-c2noc(C(F)(F)F)n2)cc1` [Compound 3a.23, N,N-diisobutyl-4-[5-(trifluoromethyl)-1,2,4-oxadiazol-3-yl]benzamide]: the pest or weed control at 200 ppm in the test with Phakopsora pachyrhizi (setting [4]) is at least 80%. Further, the inhibition at 20 ppm in test [2] (setting [5]) is at least 80%.
Turning to `CCCCN(CCO)C(=O)c1ccc(-c2noc(C(F)(F)F)n2)cc1` [Compound 3a.25, N-butyl-N-(2-hydroxyethyl)-4-[5-(trifluoromethyl)-1,2,4-oxadiazol-3-yl]benzamide], the pest or weed control at 200 ppm in the test on Phakopsora pachyrhizi (setting [4]) is at least 80%. Also, the inhibition at 20 ppm in test [2] (setting [5]) is at least 80%.
Consider `CCOC(=O)CC(C)NC(=O)c1ccc(-c2noc(C(F)(F)F)n2)cc1` (centres unmarked) [Compound 3a.26, ethyl 3-[[4-[5-(trifluoromethyl)-1,2,4-oxadiazol-3-yl]benzoyl]amino]butanoate], for which the pest or weed control at 200 ppm (with Phakopsora pachyrhizi (setting [4]); in test [1]) was at least 80% throughout. In test [2] (setting [5]), the inhibition at 20 ppm is at least 80%.
As to `CCCCCCNC(=O)c1ccc(-c2noc(C(F)(F)F)n2)cc1` [Compound 3a.29, N-hexyl-4-[5-(trifluoromethyl)-1,2,4-oxadiazol-3-yl]benzamide], in the test with Phakopsora pachyrhizi, the pest or weed control at 200 ppm was at least 80%. Moreover, the inhibition at 20 ppm in test [2] was at least 80%.
In the case of `CCC(CC)CNC(=O)c1ccc(-c2noc(C(F)(F)F)n2)cc1` [Compound 3a.39, N-(2-ethylbutyl)-4-[5-(trifluoromethyl)-1,2,4-oxadiazol-3-yl]benzamide], the pest or weed control at 200 ppm in the test with Phakopsora pachyrhizi (setting [4]) was at least 80%. Also, in test [2] (setting [5]), the inhibition at 20 ppm was at least 80%.
As to `CC(C)(CCO)NC(=O)c1ccc(-c2noc(C(F)(F)F)n2)cc1` [Compound 3a.42, N-(3-hydroxy-1,1-dimethyl-propyl)-4-[5-(trifluoromethyl)-1,2,4-oxadiazol-3-yl]benzamide], the pest or weed control at 200 ppm in the test with Phakopsora pachyrhizi (setting [4]) is at least 80%.
As to `CN(CCCO)C(=O)c1ccc(-c2noc(C(F)(F)F)n2)cc1F` [Compound 3b.9, 2-fluoro-N-(3-hydroxypropyl)-N-methyl-4-[5-(trifluoromethyl)-1,2,4-oxadiazol-3-yl]benzamide], the pest or weed control at 200 ppm (with Phakopsora pachyrhizi (setting [4]); in test [3]) was at least 80% each time.
As to `COCCN(C(=O)c1ccc(-c2noc(C(F)(F)F)n2)cc1F)C(C)C` [Compound 3b.13, 2-fluoro-N-isopropyl-N-(2-methoxyethyl)-4-[5-(trifluoromethyl)-1,2,4-oxadiazol-3-yl]benzamide], in the test on Phakopsora pachyrhizi (setting [4]), the pest or weed control at 200 ppm was at least 80%. Further, in test [2] (setting [5]), the inhibition at 20 ppm was at least 80%.
Consider `CN(CCO)C(=O)c1ccc(-c2noc(C(F)(F)F)n2)cc1F` [Compound 3b.25, 2-fluoro-N-(2-hydroxyethyl)-N-methyl-4-[5-(trifluoromethyl)-1,2,4-oxadiazol-3-yl]benzamide], for which the pest or weed control at 200 ppm with Phakopsora pachyrhizi (setting [4]) is at least 80%.
With `O=C(NCCCCO)c1ccc(-c2noc(C(F)(F)F)n2)cc1F` [Compound 3b.26, 2-fluoro-N-(4-hydroxybutyl)-4-[5-(trifluoromethyl)-1,2,4-oxadiazol-3-yl]benzamide], the pest or weed control at 200 ppm (with Phakopsora pachyrhizi (setting [4]); in test [1]) was at least 80% throughout. The inhibition at 20 ppm in test [2] (setting [5]) was at least 80%.
For `CCC(CC)CNC(=O)c1ccc(-c2noc(C(F)(F)F)n2)cc1F` [Compound 3b.42, N-(2-ethylbutyl)-2-fluoro-4-[5-(trifluoromethyl)-1,2,4-oxadiazol-3-yl]benzamide], the pest or weed control at 200 ppm in the test with Phakopsora pachyrhizi (setting [4]) was at least 80%.
Turning to `Cc1cc(C#N)c(NC(=O)c2ccc(-c3noc(C(F)(F)F)n3)cc2)s1` [Compound 5a.1, N-(3-cyano-5-methyl-2-thienyl)-4-[5-(trifluoromethyl)-1,2,4-oxadiazol-3-yl]benzamide], the pest or weed control at 200 ppm in the test on Phakopsora pachyrhizi (setting [4]) was at least 80%.
On to `O=C(Nc1cn[nH]c1)c1ccc(-c2noc(C(F)(F)F)n2)cc1` [Compound 5a.3, N-(1H-pyrazol-4-yl)-4-[5-(trifluoromethyl)-1,2,4-oxadiazol-3-yl]benzamide], for which the pest or weed control at 200 ppm in the test on Phakopsora pachyrhizi (setting [4]) is at least 80%.
Still for that read-out and setting: for `COC1=NS(C)=NC(N(C)C(=O)c2ccc(-c3noc(C(F)(F)F)n3)cc2F)=N1` (centres unmarked) [Compound 5b.8, 2-fluoro-N-(5-methoxy-1-methyl-1-thia-2,4,6-triazacyclohexa-2,4,6-trien-3-yl)-N-methyl-4-[5-(trifluoromethyl)-1,2,4-oxadiazol-3-yl]benzamide] the value was at least 80%.
